This note sets out measurements from patent publication US10166229B2, “Compounds and methods for the treatment of cancer” (The Board of Trustees of the University of Illinois, priority 2005, dated 2019).

A word on the EC50: it is the concentration that produces a half-maximal response.

Test [1] has as its target T1, procaspase-3 (Homo sapiens (Human), UniProt P42574). Briefly: In vitro activation of purified procaspase-3 (activation curves, Ac-DEVD-pNA). Format: biochemical. Particulars: for EC50: read-out: EC50 for activation of procaspase-3. On the procedure:
Activation curves. […] The plate was read every 2 minutes at 405 nm for 2 hours in a Spectra Max Plus 384 well plate reader. The slope of the linear portion for each well was determined and the fold increase in activation from non-treated control wells was calculated. […]

Test [2] concerns the target procaspase-3 mutant DAD (Homo sapiens, UniProt P42574, D180A). Briefly: Activation of safety catch mutant procaspase-3 (DAD). Particulars: Asp-Ala-Asp mutant. Format: biochemical. An excerpt:
(§1) Safety catch mutations. The DDD procaspase-3 safety catch (SEQ ID NO:1; SEQ ID NO:2; SEQ ID NO:9) was mutated to ADD (SEQ ID NO:3, SEQ ID NO:4, SEQ ID NO:10), DAD (SEQ ID NO:5, SEQ ID NO:6, SEQ ID NO:11) and DDA (SEQ ID NO:7, SEQ ID NO:8, SEQ ID NO:12) using the quickchange strategy with the following primers, gacagacagtggtgttgCGgatgacatggcgtgtcataaaatacc (SEQ ID NO:13), gacagacagtggtgttgatgCtgacatggcgtgtcataaaatacc (SEQ ID NO:14) and gacagacagtggtgttgatgatgCcatggcgtgtcataaaatacc (SEQ ID NO:15) respectively. See also FIG. 9 and FIG. 10. Mutated bases are underlined and capitalized. All mutant plasmids were sequenced to ensure proper sequence throughout the gene. All mutant plasm ids were expressed exactly as wild-type procaspase-3 as described above. […] The plate was then incubated for 12 hours at 37° C. 10 μL of a 2 mM solution of Ac-DEVD-pNA (SEQ ID NO: 28) in caspase assay buffer was then added to each well. The plate was read every 2 minutes at 405 nm for 2 hours in a Spectra Max Plus 384 well plate reader. The slope of the linear portion for each well was determined and the fold increase in activity for each mutant was calculated.

Test [3] deals with procaspase-3 mutant ADD. The test is described as follows: Activation of safety catch mutant procaspase-3 (ADD). Format: biochemical, Homo sapiens.
From the text: as §1

Test [4] concerns the target T1, procaspase-3. Briefly: Effect of pH on PAC-1 activation of procaspase-3. Particulars: low pH values. Format: biochemical. On the procedure: The plate was then incubated for 12 hours at 37° C. 10 μL of a 2 mM solution of Ac-DEVD-pNA (SEQ ID NO: 28) in caspase assay buffer was then added to each well. […] The slope of the linear portion for each well was determined and the fold increase in activation for each pH value was calculated.

Where two headings read alike, the source gives them in different places.

T1 sequence (P42574 whole entry): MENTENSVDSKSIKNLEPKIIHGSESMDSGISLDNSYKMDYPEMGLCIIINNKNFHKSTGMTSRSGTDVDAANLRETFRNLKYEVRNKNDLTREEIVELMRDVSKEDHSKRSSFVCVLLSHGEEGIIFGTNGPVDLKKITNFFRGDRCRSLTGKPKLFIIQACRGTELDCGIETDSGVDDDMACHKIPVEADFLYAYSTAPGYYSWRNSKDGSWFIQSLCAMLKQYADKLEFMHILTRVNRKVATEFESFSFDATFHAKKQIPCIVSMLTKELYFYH
Chain of procaspase-3 mutant DAD (P42574 29-175 limits assumed): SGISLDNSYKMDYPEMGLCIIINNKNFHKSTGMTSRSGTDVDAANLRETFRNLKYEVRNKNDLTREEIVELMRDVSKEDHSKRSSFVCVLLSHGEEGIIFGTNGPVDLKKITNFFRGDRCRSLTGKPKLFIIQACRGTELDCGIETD
Chain of procaspase-3 mutant DAD (P42574 176-277 D180A limits assumed): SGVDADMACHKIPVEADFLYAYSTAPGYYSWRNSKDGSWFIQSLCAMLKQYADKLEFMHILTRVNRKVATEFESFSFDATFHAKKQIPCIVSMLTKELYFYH

As for `C=CCc1cccc(/C=N/NC(=O)CN2CCN(Cc3ccccc3)CC2)c1O` [PAC-1], the “procaspase-3 activation in vitro (in words)” value in test [1] is “activate procaspase-3 in vitro”. Further, the “Activity (direct activation of purified procaspase-3 in vitro)” value in test [1] (Table 2) was “Active”. Besides, the EC50 was ~220 nM in test [1] (in vitro), 220 nM in test [1] (wild type procaspase-3 (DDD)), 2770 nM in test [2] and 131000 nM in test [3]. The “effect of PAC-1 on procaspase-3 at low pH” value in test [4] was “abolished”.
